The numbers were not newly measured in patent US6150513A, “Polyketide synthase enzymes and recombinant DNA constructs therefor” (Kosan Biosciences, Inc., priority 1998, dated 2000), which cites them from elsewhere.

Like-named read-outs stand apart in the source and are kept apart here.

The subject of one data set is splenocyte proliferation. Conditions: Luengo et al., 1995.
The next data set concerns sensory neurons. Conditions: compared with FK-506, FK-520 and rapamycin; Steiner et al., 1997.
Data set [1] concerns nigral-striatal dopamine neurons. Conditions: administration of FKBP ligand.

For the molecule `COC(=O)N[C@H]1C[C@@H]2CC[C@@H](C)[C@@](O)(O2)C(=O)C(=O)N2CCCC[C@H]2C(=O)O[C@H]([C@H](C)C[C@@H]2CC[C@@H](O)[C@H](OC)C2)CC(=O)[C@H](C)/C=C(\C)[C@@H](O)[C@@H](OC)C(=O)[C@H](C)C[C@H](C)/C=C/C=C/C=C/1C` [compound 1], in the data set with FKBP (relative to rapamycin, Luengo et al., 1995), the “reduction in binding to FKBP” value is recorded as 10 fold. In the data set on splenocyte proliferation, the “activity in the splenocyte proliferation assay” value is “complete loss of activity”.
On to `CC[C@@H]1/C=C(\C)C(O)[C@H](C)C[C@H](OC)[C@H]2O[C@@](O)(C(=O)C(=O)N3CCCC[C@H]3C(=O)O[C@H](/C(C)=C/[C@@H]3CC[C@@H](O)[C@H](OC)C3)[C@H](C)[C@@H](O)CC1=O)[C@H](C)C[C@@H]2OC` (stereo partly drawn) [L-685,818], for which the IC50 with FKBP (see Dumont et al., 1992, read-out: ED50 for FKBP binding) was 0.7 nM. In addition, in the data set with sensory neurons, the “promoting neurite outgrowth in sensory neurons” value is “about as effective as FK-506, FK-520, and rapamycin”.
Take `CO[C@H]1C[C@@H]2CC[C@@H](C)[C@@](O)(O2)C(=O)C(=O)N2CCCC[C@H]2C(=O)O[C@H]([C@H](C)C[C@@H]2CC[C@@H](O)[C@H](OC)C2)CC(=O)[C@H](C)/C=C(\C)[C@@H](O)[C@@H](OC)C(=O)[C@H](C)C[C@H](C)C2C=CC(/C=C/1C)n1c(=O)n(-c3ccccc3)c(=O)n12` [WAY-124,466]: in the data set on FKBP (see Ocain et al., 1993, target not given, context FKBP binding, read-out: IC50), the IC50 is 12.5 nM. For the same molecule, the “promoting neurite outgrowth in sensory neurons” value in the data set with sensory neurons is “about as effective as FK-506, FK-520, and rapamycin”.
Consider `COC1CC2CCC(C)C(O)(O2)C(=O)C(=O)N2CCCCC2C(=O)NC(CCc2ccccc2)C(=O)NCC(=O)N(C)CC(=O)OC1C` (stereo not drawn) [compound 3], for which, in the data set with FKBP (relative to FK-506), the “binding to FKBP, poorer than FK-506” value is “about 20 fold”.
On to `CCC(C)(C)C(=O)C(=O)N1CCC[C@H]1C(=O)OCCCc1cccnc1` [GPI-1046], for which the “effect in primate MPTP model” value in data set [1] is “caused brain cells to regenerate and behavioral measures to improve”.
On to `CC1(C)COC(=O)CCCCCCOc2cccc(c2)[C@@H](CCc2ccccc2)OC(=O)[C@@H]2CCCCN2C(=O)C1=O` [compound 2], for which, in the data set on FKBP (in words), the “binding to FKBP compared with FK-506” value is on record as “about as well as FK-506”.
